According to patent US12516038B2, “Inhibitors of antigen presentation by HLA-DR” (Janssen Pharmaceutica NV, priority 2020, dated 2026):
pIC50: −log10 of the molar value.

Key:
[1] = test system: HLA-DR4 restricted mouse T cell hybridoma line (DR4.CII.36.8) with HLA-DRB1*04:01-expressing Boleth cells; assay: HLA-DR4-restricted peptide-specific T cell-based assay (hybridoma assay); settings: 6 h, inhibition of IL-2 production, CII259-273 peptide presented by Boleth cells
Outline: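 Boleth cells (HLA-DRB1*04:01 B cell line) pre-incubated with compound 1 h at 37° C. in DMEM/1% FCS, then DR4.CII.36.8 mouse T cell hybridoma (CII259-273-specific) added for 6 h with CII259-273 peptide. Supernatant mouse IL-2 by AlphaLISA; IC50 by 4-PL fit of 8-point duplicate titrations.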

[2] = biological target: HLA-DRB1*0401 (Homo sapiens (Human), UniProt P01903+P01911, A100K/A169T/DEL228-266/F76Y/I96L/K127E/L162R/M171V/N62H/P40V/Q125Y/R42H/S133A/S149N/S66Y/V115G/V209L/W38E); assay: HLA-DR4 HTRF assay; assay type: binding; settings: inhibition of loading of Alexa Fluor 647-labeled Cit-CII peptide onto HLA-DR4 (CLIP cleaved)
Outline: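 HLA-DRB1*04:01 construct (α/β fused to human Fc, CLIP pre-cleaved by HRV3C overnight at 4° C) at 3 nM was preincubated 45 min with compound and 1 nM anti-Fc-Tb donor, then 40 nM Alexa647-Cit-CII1236-1249 peptide added. After 90 min at 37° C, the 665/620 nm HTRF ratio gave % inhibition; IC50 by nonlinear regression.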

[3] = test system: human peripheral blood CD4+ helper T cells; assay: Pan-CD4+ T cell activation (off-target assay); assay type: cell-based; settings: anti-CD3/anti-CD28 stimulation, IL-2 production by ELISA
Description: The counter-screening was made through an HLA-DR-independent assay (Pan-CD4+ T cell activation assay), i.e., TCR-stimulated pan-T cell activation assay, and consists of activating T cell directly with agonistic antibody targeting the T cell receptor. The lack of inhibition in the counter-screening assay reflects that the inhibition of T cell activation in the HLA-DR4 restricted peptide-specific T cell based assay with the small molecule inhibitors is due to impaired antigen presentation on HLA-DR to the T cell and not due to a direct inhibition of the T cell function by an off-target mechanism (i.e., independently of targeting HLA-DR).
Pan-CD4+ T Cell Activation
Compounds were tested using a pan-T cell activation assay. In this assay, anti-human CD3 antibody (BD Pharmingen #55336) pre-coated at 1 μg/mL to a 96-well assay plate and 1 μg/ml soluble anti-human CD28 (EBioscience #16-0289-85) antibody were used for activating human peripheral blood CD4+ helper T cells (no HLA-DR-expressing APC were present in this assay format), in the presence of compounds (or vehicle control) for 24 hrs. IL-2 production was measured in the culture supernatant by ELISA (Human IL-2 Duo Set ELISA #DY202 from R&D Systems).

Row | Structure (SMILES) | pIC50 ([1]; Mus musculus, T-cell) | pIC50 [2] | pIC50 ([3]; Homo sapiens, T-cell, 24 h) | pIC50 [1] | pIC50 ([3]; 24 hrs)
1 | Cc1c(O[C@H](c2ccc(C(N)=O)cc2)c2cccc(C#N)c2)c(F)cc2c1OCCC2=O (single isomer, unassigned) [Example 92a, (*R)-4-((3-cyanophenyl)((6-fluoro-8-methyl-4-oxochroman-7-yl)oxy)methyl)benzamide] | 6.51 | 6.52 | 5.00 | – | –
2 | Cc1c(O[C@@H](c2ccccc2)c2ccc(C(=O)O)cc2)ccc2c1OCCC2=O (single isomer, unassigned) [Example 70b, (*S)-4-(((8-methyl-4-oxochroman-7-yl)oxy)(phenyl)methyl)benzoic acid] | 5.32 | 5.82 | 5.00 | – | –
3 | CC1(C)COc2cc(O[C@@H](c3ccncc3)c3ccc(C(N)=O)cc3)ccc2C1=O (single isomer, unassigned) [Example 56a, (*R)-4-(((3,3-dimethyl-4-oxochroman-7-yl)oxy)(pyridin-4-yl)methyl)benzamide] | 5.77 | 5.85 | 5.34 | – | –
4 | O=C1CCOc2cc(OC(c3ccncc3)c3ccc(F)cc3)ccc21 (racemic) [Example 3, (R,S)-7-((4-Fluorophenyl)(pyridin-4-yl)methoxy)chroman-4-one] | 5.43 | 6.00 | < 4.82 | – | –
5 | COc1ccccc1C(Oc1ccc2c(c1)OCCC2=O)c1ccncc1 (racemic) [Example 14, 7-((2-Methoxyphenyl)(pyridin-4-yl)methoxy)chroman-4-one] | 5.30 | 5.62 | < 4.82 | – | –
6 | CNC(=O)c1ccc([C@@H](Oc2ccc3c(c2)OCCC3=O)c2ccncc2)cc1 (single isomer, unassigned) [Example 34a, (*R)—N-methyl-4-(((4-oxochroman-7-yl)oxy)(pyridin-4-yl)methyl)benzamide] | 4.92 | 6.10 | 5.00 | – | –
7 | NC(=O)c1ccc([C@H](Oc2ccc3c(c2)OCCC3=O)c2ccccc2)cc1 (single isomer, unassigned) [Example 29a, (*R)-4-(((4-oxochroman-7-yl)oxy)(phenyl)methyl)benzamide] | 5.64 | 5.96 | < 4.82 | – | –
8 | O=C1CCOc2cc(O[C@@H](c3ccncc3)C3CCCCC3)ccc21 (single isomer, unassigned) [Example 38a, (*R)-7-(cyclohexyl(pyridin-4-yl)methoxy)chroman-4-one] | 5.40 | 5.34 | 5.33 | – | –
9 | Cc1c(O[C@H](c2ccc(C(N)=O)cc2)c2ccccc2F)ccc2c1OCCC2=O (single isomer, unassigned) [Example 68a, (*R)-4-((2-Fluorophenyl)((8-methyl-4-oxochroman-7-yl)oxy)methyl)benzamide] | 5.25 | 5.82 | 5.33 | – | –
10 | COc1cc([C@@H](Oc2ccc3c(c2)OCCC3=O)c2ccc(C(N)=O)cc2)ccn1 (single isomer, unassigned) [Example 24b, (*S)-4-((2-methoxypyridin-4-yl)((4-oxochroman-7-yl)oxy)methyl)benzamide] | 5.57 | 5.92 | 5.33 | – | –
11 | Cc1cc([C@H](Oc2c(F)cc3c(c2C)OCCC3=O)c2ccc(C(N)=O)cc2)cc(C)n1 (single isomer, unassigned) [Example 94a, (*R)-4-((2,6-dimethylpyridin-4-yl)((6-fluoro-8-methyl-4-oxochroman-7-yl)oxy)methyl)benzamide] | 7.33 | 6.66 | 5.00 | – | –
12 | Cc1c(O[C@H](c2ccncc2)c2ccc(C(N)=O)cc2OCc2ccccc2)ccc2c1OCCC2=O (single isomer, unassigned) [Example 86a, (*R)-3-(benzyloxy)-4-(((8-methyl-4-oxochroman-7-yl)oxy)(pyridin-4-yl)methyl)benzamide] | 7.14 | 6.13 | 5.60 | – | –
13 | N#Cc1ccc([C@H](Oc2ccc3c(c2)OCCC3=O)c2ccncc2)c2ccccc12 (single isomer, unassigned) [Example 37a, (*R)-4-(((4-oxochroman-7-yl)oxy)(pyridin-4-yl)methyl)-1-naphthonitrile] | 5.03 | 4.48 | 5.70 | – | –
14 | NC(=O)c1ccc([C@H](Oc2cc3c(cc2-c2ccccc2)C(=O)CCO3)c2ccncc2)cc1 (single isomer, unassigned) [Example 54b, (*S)-4-(((4-oxo-6-phenylchroman-7-yl)oxy)(pyridin-4-yl)methyl)benzamide] | 5.37 | 6.06 | 4.82 | – | –
15 | Cc1c(O[C@@H](c2ccc(C(N)=O)cc2)c2cccc(C#N)c2)ccc2c1OCCC2=O (single isomer, unassigned) [Example 60b, (*S)-4-((3-cyanophenyl)((8-methyl-4-oxochroman-7-yl)oxy)methyl)benzamide] | 5.64 | 5.70 | 5.00 | – | –
16 | COc1cccc([C@@H](Oc2ccc3c(c2)OCCC3=O)c2ccncc2)c1 (single isomer, unassigned) [Example 13b, (*S)-7-((3-methoxyphenyl)(pyridin-4-yl)methoxy)chroman-4-one] | 5.33 | 5.85 | < 4.82 | – | –
17 | NC(=O)c1ccc(C(Oc2ccc3c(c2)OCCC3=O)c2ccncc2)cc1 (racemic) [Example 11, (R,S)-4-(((4-Oxochroman-7-yl)oxy)(pyridin-4-yl)methyl)benzamide] | 5.92 | 6.19 | < 4.82 | – | –
18 | NC(=O)c1ccc([C@@H](Oc2ccc3c(c2)OCCC3=O)c2ccnc3ccccc23)cc1 (single isomer, unassigned) [Example 22a, (*R)-4-(((4-oxochroman-7-yl)oxy)(quinolin-4-yl)methyl)benzamide] | 5.72 | 5.89 | 5.33 | – | –
19 | O=C1CCOc2cc(OC(c3ccccc3)c3cccnc3)ccc21 (racemic) [Example 115, (R,S)-7-(Phenyl(pyridin-3-yl)methoxy)chroman-4-one] | 4.92 | 5.30 | 4.82 | – | –
20 | Cc1c(O[C@H](c2ccc(C(N)=O)cc2)c2ccc(C(=O)O)cc2)ccc2c1OCCC2=O (single isomer, unassigned) [Example 71a, (*R)-4-((4-carbamoylphenyl)((8-methyl-4-oxochroman-7-yl)oxy)methyl)benzoic acid] | 5.82 | 5.80 | < 4.82 | – | –
21 | NC(=O)c1cccc([C@H](Oc2ccc3c(c2)OCCC3=O)c2ccncc2)c1 (single isomer, unassigned) [Example 9b, (*S)-3-(((4-oxochroman-7-yl)oxy)(pyridin-4-yl)methyl)benzamide] | 4.96 | 6.01 | 5.33 | – | –
22 | CC[C@@H]1COc2cc(O[C@@H](c3ccncc3)c3ccc(C(N)=O)cc3)ccc2C1=O (single isomer, unassigned) [Example 46a, 4-((*R)—(((*R)-3-ethyl-4-oxochroman-7-yl)oxy)(pyridin-4-yl)methyl)benzamide] | 5.82 | 6.01 | < 4.82 | – | –
23 | O=C1CCOc2cc(O[C@H](c3ccncc3)c3cccc(F)c3)ccc21 (single isomer, unassigned) [Example 2a, (*R)-7-((3-Fluorophenyl)(pyridin-4-yl)methoxy)chroman-4-one] | 5.77 | 5.80 | 4.82 | – | –
24 | Cc1c(O[C@@H](c2ccc(C(N)=O)cc2)c2cccc[n+]2[O-])ccc2c1OCCC2=O (single isomer, unassigned) [Example 65b, (*S)-2-((4-carbamoylphenyl)((8-methyl-4-oxochroman-7-yl)oxy)methyl)pyridine 1-oxide] | – | 4.55 | – | 5.70 | 4.82
25 | O=C1CCOc2cc(O[C@@H](c3ccccc3)c3ccncc3)ccc21 (single isomer, unassigned) [Example 114b, (*S)-7-(phenyl(pyridin-4-yl)methoxy)chroman-4-one] | 5.52 | 5.89 | 5.33 | – | –
26 | NC(=O)c1ccc([C@@H](Oc2ccc3c(c2)OCCC3=O)c2cccnc2)cc1 (single isomer, unassigned) [Example 31b, (*S)-4-(((4-oxochroman-7-yl)oxy)(pyridin-3-yl)methyl)benzamide] | – | 6.19 | – | 5.46 | < 4.82
